We go through 28 molecules from ChEMBL document CHEMBL1126573, “Non-peptide angiotensin II receptor antagonists. 1. Design, synthesis, and biological activity of N-substituted indoles and dihydroindoles” (J Med Chem, 1993).

Assay [1] concerns the target T1, Type-1 angiotensin II receptor (Oryctolagus cuniculus, UniProt P34976).
T1 sequence (P34976 whole entry): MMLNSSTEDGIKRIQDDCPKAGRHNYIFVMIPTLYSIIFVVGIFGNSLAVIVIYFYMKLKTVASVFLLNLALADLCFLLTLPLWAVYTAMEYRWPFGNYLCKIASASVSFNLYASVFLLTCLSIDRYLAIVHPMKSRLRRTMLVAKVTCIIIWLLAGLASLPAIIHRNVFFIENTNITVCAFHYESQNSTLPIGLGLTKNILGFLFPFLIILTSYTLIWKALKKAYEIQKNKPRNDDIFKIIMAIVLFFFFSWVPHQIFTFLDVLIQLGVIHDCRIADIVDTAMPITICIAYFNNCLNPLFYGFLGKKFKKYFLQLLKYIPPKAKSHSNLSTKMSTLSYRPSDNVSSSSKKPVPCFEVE
As to the kind of experiment: In vitro antagonist activity against angiotensin II receptor type 1 in rabbit aorta using [125I]-Sar, Ile AII. It counts as functional, tissue-based.

Assay [2] deals with T2, Type-2 angiotensin II receptor (Rattus norvegicus, UniProt P35351).
T2 sequence (P35351 whole entry): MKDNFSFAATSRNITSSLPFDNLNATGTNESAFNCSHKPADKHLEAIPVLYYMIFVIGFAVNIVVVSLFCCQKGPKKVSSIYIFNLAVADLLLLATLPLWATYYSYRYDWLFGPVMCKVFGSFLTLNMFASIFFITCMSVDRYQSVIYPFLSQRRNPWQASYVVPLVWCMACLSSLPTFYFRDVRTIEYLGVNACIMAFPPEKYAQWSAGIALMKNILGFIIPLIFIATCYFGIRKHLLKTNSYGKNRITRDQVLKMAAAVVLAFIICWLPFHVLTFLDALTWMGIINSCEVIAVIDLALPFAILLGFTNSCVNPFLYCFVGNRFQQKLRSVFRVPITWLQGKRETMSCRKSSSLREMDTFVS
As to the kind of experiment: In vitro antagonist activity against angiotensin II receptor type 2 in rat midbrain using [125I]-Sar,Ile AII. It counts as functional.

Structures are written as SMILES. pIC50: −log10 of the molar value.

For orientation: pIC50 means the IC50 on a negative log10 scale, so that one unit is a factor of ten. Low values mean a high IC50, high ones a low IC50. Turning to `CCc1nc2c(C)cc(C)nc2n1Cc1ccc2c(ccn2Cc2cccc([N+](=O)[O-])c2C(=O)O)c1`, the figures for the pIC50 in assay [1] and in assay [2] were 6.80 and 4.85, respectively.

With `CCc1nc2c(C)cc(C)nc2n1Cc1ccc2c(ccn2C(=O)c2ccccc2-c2nnn[nH]2)c1`, the pIC50 in assay [1] was 8.30; in assay [2] it was 6.89.

`CCc1nc2c(C)cc(C)nc2n1Cc1ccc2c(ccn2C(=O)c2ccccc2C(=O)O)c1`: the pIC50 was 7.70 in assay [1] and 5.18 in assay [2].

`CCc1nc2c(C)cc(C)nc2n1Cc1ccc2c(c1)CCN2C(=O)c1ccccc1-c1nnn[nH]1`: the pIC50 in assay [1] was 6.11; in assay [2], < 5.00.

In the case of `CCc1nc2c(C)cc(C)nc2n1Cc1ccc2c(c1)CCN2C(=O)c1ccccc1C(=O)O`, the pIC50 in assay [1] is 7.32; in assay [2] it was 5.00.

Turning to `CCc1nc2c(C)cc(C)nc2n1Cc1ccc2c(c1)CCN2C(C#N)c1cccc(C)c1` (stereo unspecified), the pIC50 in assay [1] was 5.80; in assay [2], 4.98.

Turning to `CCc1nc2c(C)cc(C)nc2n1Cc1ccc2c(c1)CCN2C(C#N)c1ccccc1C` (stereo unspecified), the pIC50 is 5.96 in assay [1] and 4.89 in assay [2].

Regarding `CCc1nc2c(C)cc(C)nc2n1Cc1ccc2c(c1)CCN2C(=O)c1cc(Cl)c(Cl)cc1C(=O)O`, the pIC50 is 6.77 in assay [1] and 6.00 in assay [2].

On to `CCc1nc2c(C)cc(C)nc2n1Cc1ccc2c(ccn2C(=O)c2ccccc2NC(=O)O)c1`, for which the pIC50 in assay [1] was 7.04; in assay [2] it was 4.77.

With `CCc1nc2c(C)cc(C)nc2n1Cc1ccc2c(c1)CCN2C(C(=O)OC)c1ccccc1` (stereo unspecified), the negative logarithm of the IC50 (pIC50) in assay [1] was 6.77; in assay [2] it was 4.80.

On to `CCc1nc2c(C)cc(C)nc2n1Cc1ccc2c(c1)CCN2C(=O)c1ccccc1C#N`, for which the pIC50 is 6.17 in assay [1] and 4.60 in assay [2].

In the case of `CCc1nc2c(C)cc(C)nc2n1Cc1ccc2c(ccn2Cc2c(Cl)cccc2-c2nnn[nH]2)c1`, the pIC50 in assay [1] was 9.00; in assay [2], 4.92.

Take `CCc1nc2c(C)cc(C)nc2n1Cc1ccc2c(c1)CCN2C(C#N)c1ccccc1` (stereo unspecified): the pIC50 in assay [1] was 6.46; in assay [2], 4.94.

Regarding `CCc1nc2c(C)cc(C)nc2n1Cc1ccc2c(ccn2C(=O)c2cc(Cl)c(Cl)cc2C(=O)O)c1`, the pIC50 in assay [1] was 7.82; in assay [2], 5.72.

With `CCc1nc2c(C)cc(C)nc2n1Cc1ccc2c(ccn2Cc2ccccc2C#N)c1`, the values for the pIC50 in assay [1] and in assay [2] were 6.49 and < 4.52, respectively.

Turning to `CCc1nc2c(C)cc(C)nc2n1Cc1ccc2c(ccn2Cc2ccccc2C(=O)O)c1`, the pIC50 in assay [2] was < 4.52.

Consider `CCc1nc2c(C)cc(C)nc2n1Cc1ccc2c(ccn2Cc2ccccc2-c2nn[nH]n2)c1`, for which the negative logarithm of the IC50 (pIC50) in assay [1] was 8.06; in assay [2] it was < 4.74.

With `CCc1nc2c(C)cc(C)nc2n1Cc1ccc2c(ccn2Cc2c(Cl)cccc2C#N)c1`, the pIC50 in assay [1] is 6.92; in assay [2] it was < 4.52.

`CCc1nc2c(C)cc(C)nc2n1Cc1ccc2c(c1)CCN2C(C#N)c1ccc(C)cc1` (stereo unspecified) showed a pIC50 in assay [2] of 4.85.

On to `CCc1nc2c(C)cc(C)nc2n1Cc1ccc2c(ccn2Cc2ccccc2C(=O)OC)c1`, for which the negative-log IC50 (pIC50) in assay [1] was 6.21; in assay [2] it was 4.68.

For `CCc1nc2c(C)cc(C)nc2n1Cc1ccc2c(ccn2C(=O)c2ccccc2C#N)c1`, the pIC50 is 6.60 in assay [1] and < 4.30 in assay [2].

As for `CCc1nc2c(C)cc(C)nc2n1Cc1ccc2c(c1)CCN2C(=O)c1c(Cl)ccc(Cl)c1C(=O)O`, the pIC50 in assay [1] was 7.74; in assay [2], 5.19.

Turning to `CCc1nc2c(C)cc(C)nc2n1Cc1ccc2c(ccn2Cc2ccccc2NC(=O)OC)c1`, the pIC50 in assay [2] was < 4.52.

Take `CCc1nc2c(C)cc(C)nc2n1Cc1ccc2c(ccn2C(=O)c2c(Cl)ccc(Cl)c2C(=O)O)c1`: the values for the negative logarithm of the IC50 (pIC50) in assay [1] and in assay [2] were 9.10 and 5.57, respectively.

`CCc1nc2c(C)cc(C)nc2n1Cc1ccc2c(c1)CCN2C(C(=O)O)c1ccccc1` (stereo unspecified): the pIC50 in assay [1] is 7.09; in assay [2], 4.85.

As for `CCc1nc2c(C)cc(C)nc2n1Cc1ccc2c(ccn2C(=O)c2ccccc2)c1`, the pIC50 in assay [1] is 6.62; in assay [2], 5.05.

Turning to `CCc1nc2c(C)cc(C)nc2n1Cc1ccc2c(c1)CCN2C(c1ccccc1)c1nnn[nH]1` (stereo unspecified), the pIC50 in assay [2] is < 4.52.

On to `CCc1nc2c(C)cc(C)nc2n1Cc1ccc(-c2ccccc2-c2nnn[nH]2)cc1` [L-158809], for which the negative-log IC50 (pIC50) in assay [2] is < 5.00.
